Results taken from patent US7173060B2, “Oxime derivatives and their use as pharmaceutically active agents” (Hoffmann-La Roche Inc., priority 2003, dated 2007).

System: histone deacetylase (HDAC)
Test: cellular acetylation assay (histone acetylation ELISA in PC3 cells)
Type: cell-based
Conditions: PC3 human prostate carcinoma cells, compound 1 μM, 24 h incubation, ELISA with antibodies against acetylated histone H3 or H4
Method: Therein acetylation of histones is monitored in PC3 cells. High acetylation correlates with inhibition of histone deacetylase by compounds. Cell viability is monitored in parallel to estimate the cytotoxicity of compounds.
PC3 cells, a human prostate carcinoma cell line, are seeded as 1800 cells per well of a 384-well microtiterplate in RPMI 1640 (including 5% FCS, 2 mM glutamine and pen/strep). After 48 h at 37° C. pre-diluted compounds are added to a final concentration of 1 uM. Compounds are pre-diluted in dimethyl sulfoxide (DMSO) resulting in a final concentration of DMSO of 0.5% per well.
After 24 h incubation cell viability is determined by adding cell proliferation reagent WST-1 (Roche Molecular Biochemicals). Another 60 min later the optical density (OD) is measured (450 nm versus 690 nm).
After measurement the cell layer is prepared for the ELISA reaction. Medium is aspirated and cells are fixed in ethanol at −20° C. for 60 min. After washing with PBS/Tween the blocking solution (PBS/5% FCS/Tween) is added and the cell layer is washed again. Antibodies against acetylated histone H3 or H4 (rabbit polyklonal IgG, Upstate Biotechnologie) are added at a dilution of 1:200 for 60 min at 37° C. As a second antibody goat anti rabbit IgG (H+L) humanIgG adsorbed-HRP conjugate (Dako) is used (1:2000 diluted). Cells are washed 3 times and the peroxidase substrate ABTS is allowed to react for 30–60 min at 37° C. The OD is measured at 405 nm.
The percentage of acetylation is calculated after substraction of blank O.D.s: […]

| SMILES | cell acetylation (PC3, 1 μM) [% of control] |
| --- | --- |
| CC(=O)Nc1ccc(C(=O)Nc2ccccc2N)cc1 [4-acetylamino-N-(2-amino-phenyl)-benzamide, reference compound] | 152 % of control |
| Nc1ccccc1NC(=O)c1ccc(CON=Cc2ccccc2)s1 [4–6, 5-Benzylideneaminooxymethyl-thiophene-2-carboxylic acid (2-amino-phenyl)-amide] | 180 % of control |
| Nc1ccccc1NC(=O)c1ccc(CON=Cc2cccnc2)s1 [4–21, 5-(Pyridin-3-ylmethyleneaminooxymethyl)-thiophene-2-carboxylic acid (2-amino-phenyl)-amide] | 135 % of control |
| Nc1ccccc1NC(=O)c1ccc(CON=Cc2ccc(OC(F)(F)F)cc2)s1 [4–17, 5-(4-Trifluoromethoxy-benzylideneaminooxymethyl)-thiophene-2-carboxylic acid (2-amino-phenyl)-amide] | 127 % of control |
| COc1ccc(C(C)=NOCc2ccc(C(=O)Nc3ccccc3N)s2)cc1OC [4–9, 5-[1-(3,4-Dimethoxy-phenyl)-ethylideneaminooxymethyl]-thiophene-2-carboxylic acid (2-amino-phenyl)-amide] | 158 % of control |
| Nc1ccccc1NC(=O)c1ccc(CON=Cc2ccc3c(c2)OCCO3)s1 [Example 3, 5-(2,3-Dihydro-benzo[1,4]dioxin-6-ylmethyleneaminooxymethyl)-thiophene-2-carboxylic acid (2-amino-phenyl)-amide] | 116 % of control |
| COc1ccc(C=NOCc2ccc(C(=O)Nc3ccccc3N)s2)cc1OC [4–12, 5-(3,4-Dimethoxy-benzylideneaminooxymethyl)-thiophene-2-carboxylic acid (2-amino-phenyl)-amide] | 137 % of control |
| Nc1ccccc1NC(=O)c1ccc(CON=C2Cc3ccccc3C2)s1 [4–7, 5-(Indan-2-ylideneaminooxymethyl)-thiophene-2-carboxylic acid (2-amino-phenyl)-amide] | 182 % of control |
